The record followed here is patent publication US10231956B2, “3-(1H-pyrrolo[3,2-C]pyridin-2-YL)-1 H-pyrazolo[4,3-B]pyridines and therapeutic uses thereof” (Samumed, LLC, priority 2015, dated 2019).

What all share (type): cell-based
Test [1] deals with primary human fibroblasts derived from IPF patients (LL29 cells). Description: Inhibition of fibrotic process: αSMA staining in TGF-β1 treated LL29 fibroblasts. Conditions: Fibroblast; for EC50: 96 h, TGF-β1 20 ng/mL, 4 days, % cells positive for αSMA; for inhibition at 10 µM: given for EC50 >10 μM, TGF-β1, αSMA, read-out: percent inhibition at 10 μM. An excerpt: Representative compounds were screened using primary human fibroblasts (derived from IPF patients) treated with TGF-β1 to determine their ability to inhibit the fibrotic process.
Human Fibroblast Cell Culture: Primary human fibroblasts derived from IPF patients (LL29 cells) [^1Xiaoqiu Liu, et. al., “Fibrotic Lung Fibroblasts Show Blunted Inhibition by cAMP Due to Deficient cAMP Response Element-Binding Protein Phosphorylation”, Journal of Pharmacology and Experimental Therapeutics (2005), 315(2), 678-687; ^2Watts, K. L., et. al., “RhoA signaling modulates cyclin D1 expression in human lung fibroblasts; implications for idiopathic pulmonary fibrosis”, Respiratory Research (2006), 7(1), 88] were obtained from American Type Culture Collection (ATCC) and expanded in F12 medium supplemented with 15% Fetal Bovine Serum and Penicillin/Streptomycin.
Compound Screening: Each compound was dissolved in DMSO as a 10 mM stock and used to prepare compound source plates. Serial dilution (1:2, 11-point dose-response curves from […]) and compound transfer was performed using the ECHO 550 (Labcyte, Sunnyvale, Calif.) into 384-well clear bottom assay plates (Greiner Bio-One) with appropriate DMSO backfill for a final DMSO concentration of 0.1%. LL29 cells are plated at 1,500 cells/well in 80 μL/well F12 medium supplemented with 1% Fetal Bovine Serum. One hour after addition of the cells, TGF-β1 (Peprotech; 20 ng/mL) was added to the plates to induce fibrosis (ref. 1 and 2 above). Wells treated with TGF-β1 and containing DMSO were used as controls. Cells were incubated at 37° C. and 5% CO2 for 4 days. Following incubation for 4 days, SYTOX green nucleic acid stain (Life Technologies [Thermo Fisher Scientific]) was added to the wells at a final concentration of 1 μM and incubated at room temperature for 30 min. Cells were then fixed using 4% formaldehyde (Electron Microscopy Sciences), washed 3 times with PBS followed by blocking and permeabilization using 3% Bovine Serum Albumin (BSA; Sigma) and 0.3% Triton X-100 (Sigma) in PBS. Cells were then stained with antibody specific to α-smooth muscle actin (αSMA; Abcam) (ref. 1 and 2 above) in 3% Bovine Serum Albumin (BSA; Sigma) and 0.3% Triton X-100 (Sigma) in PBS, and incubated overnight at 4° C. Cells were then washed 3 times with PBS, followed by incubation with Alexa Flor-647 conjugated secondary antibody (Life Technologies [Thermo Fisher Scientific]) and DAPI at room temperature for 1 hour. Cells were then washed 3 times with PBS and plates were sealed for imaging. αSMA staining was imaged by excitation at 630 nm and emission at 665 nm and quantified using the Compartmental Analysis program on the CellInsight CX5 (Thermo Scientific). Dead or apoptotic cells were excluded from analysis based on positive SYTOX green staining. % of total cells positive for αSMA were counted in each well and normalized to the average of 11 wells treated with TGF-β1 on the same plate using Dotmatics' Studies Software. The normalized averages (fold change over untreated) of 3 replicate wells for each compound concentration were used to create dose-responses curves and EC50 values were calculated using non-linear regression curve fit in the Dotmatics' Studies Software. For EC50 of >10 μM, the percent inhibition at 10 μM is provided.

The subject of a further test is SW480 colon cancer cells. Description: Cell viability assay (CellTiter-Blue) in SW480 colon cancer cells. Conditions: Homo sapiens; for EC50: 96 h, four days, CellTiter-Blue; for inhibition at 10 µM: given for EC50 >10 μM, read-out: percent inhibition at 10 μM. On the procedure: Representative compounds were screened using the following assay procedure to assess the effect on cell viability as described below.
Each compound was dissolved in DMSO as a 10 mM stock and used to prepare compound source plates. Serial dilution (1:3, 8-point dose-response curves from 10 μM to 0.0045 μM) and compound transfer was performed using the ECHO 550 (Labcyte, Sunnyvale, Calif.) into 96-well clear bottom, black-walled plates (Corning-Costar).
Approximately 2×10^3 SW480 colon cancer cells were seeded into each well and allowed to incubate in the presence or absence of compound for four days at 37° C./5% CO2. Eight replicates of DMSO-treated cells served as controls and cells treated with compound were performed in duplicate.
After incubation, 20 μL of CellTiter-Blue (Promega) was added to each well allowed to incubate for approximately 3 hours. This reagent was a buffered solution which contains resazurin, metabolically active cells were able to reduce rezarurin (blue) into resorufin (pink) which was highly fluorescent. This measured fluorescence was used as a readout for cell viability.
After incubation, the plates were read at Ex 560 nm Em 590 nm (Cytation 3, BioTek). Dose-response curves were generated and EC50 concentration values were calculated using non-linear regression curve fit in the GraphPad Prism (San Diego, Calif.) or Dotmatics' Studies Software (Bishops Stortford, UK). For EC50 of >10 μM, the percent inhibition at 10 μM is provided.

Test [2] concerns Wnt activity (Sp5-Luc reporter, SW480 colon carcinoma cells). Description: Sp5-Luc reporter gene screening assay for Wnt activity in SW480 cells. To be noted: Homo sapiens; for EC50: luminescence, overnight incubation; for inhibition at 10 µM: given for EC50 >10 μM, read-out: percent inhibition at 10 μM. An excerpt: The screening assay for Wnt activity is described as follows. Reporter cell lines can be generated by stably transducing cancer cell lines (e.g., colon cancer) or primary cells (e.g., IEC-6 intestinal cells) with a lentiviral construct that includes a Wnt-responsive promoter driving expression of the firefly luciferase gene.
SW480 colon carcinoma cells were transduced with a lentiviral vector expressing luciferase with a human Sp5 promoter consisting of a sequence of eight TCF/LEF binding sites. SW480 cells stably expressing the Sp5-Luc reporter gene and a hygromycin resistance gene were selected by treatment with 150 μg/mL of hygromycin for 7 days. These stably transduced SW480 cells were expanded in cell culture and used for all further screening activities. Each compound was dissolved in DMSO as a 10 mM stock and used to prepare compound source plates. Serial dilution (1:3, 10-point dose-response curves starting from 10 μM) and compound transfer was performed using the ECHO 550 (Labcyte, Sunnyvale, Calif.) into 384-well white solid bottom assay plates (Greiner Bio-One) with appropriate DMSO backfill for a final DMSO concentration of 0.1%. For Sp5-Luc reporter gene assays, the cells were plated at 4,000 cells/well in 384-well plates with medium containing 1% fetal bovine serum and incubated overnight at 37° C. and 5% CO2. Following incubation, 20 μl of BrightGlo luminescence reagent (Promega) was added to each well of the 384-well assay plates. The plates were placed on an orbital shaker for 2 min and then luminescence was quantified using the Envision (Perkin Elmer) plate reader. Readings were normalized to DMSO only treated cells, and normalized activities were utilized for EC50 calculations using the dose-response log (inhibitor) vs. response-variable slope (four parameters) nonlinear regression feature available in GraphPad Prism 5.0 (or Dotmatics). For EC50 of >10 μM, the percent inhibition at 10 μM is provided.

Where only a bound is given, the exact number is not on record here.

On to `Fc1cccc(-c2nccc3[nH]c(-c4n[nH]c5ccc(-c6cccnc6)nc45)cc23)c1` [Compound 4, 3-(4-(3-Fluorophenyl)-1H-pyrrolo[3,2-c]pyridin-2-yl)-5-(pyridin-3-yl)-1H-pyrazolo[4,3-b]pyridine], for which the figures for the 50% effective concentration (EC50) (in test [1]; in the test on SW480 colon cancer cells; in test [2]) were 427 nM, more than 10000 nM and 1490 nM, respectively. Also, the inhibition at 10 µM in the test with SW480 colon cancer cells is 25%.

With `CN(C)c1cncc(-c2ccc3[nH]nc(-c4cc5c(-c6cccc(F)c6)nccc5[nH]4)c3n2)c1` [Compound 7, 5-(3-(4-(3-Fluorophenyl)-1H-pyrrolo[3,2-c]pyridin-2-yl)-1H-pyrazolo[4,3-b]pyridin-5-yl)-N,N-dimethylpyridin-3-amine], the results for the EC50 (in test [1]; with SW480 colon cancer cells; in test [2]) were more than 10000 nM, 483 nM and 746 nM, respectively. Also, in test [1], the inhibition at 10 µM stood at 0%.

Consider `Fc1cccc(-c2nccc3[nH]c(-c4n[nH]c5ccc(-c6cncc(CN7CCCCC7)c6)nc45)cc23)c1` [Compound 15, 3-(4-(3-Fluorophenyl)-1H-pyrrolo[3,2-c]pyridin-2-yl)-5-(5-(piperidin-1-ylmethyl)pyridin-3-yl)-1H-pyrazolo[4,3-b]pyridine], for which the 50% effective concentration (EC50) in test [1] turned out to be 554 nM; in the test on SW480 colon cancer cells, 1140 nM; in test [2] it was 3750 nM.

As for `O=C(Nc1cncc(-c2ccc3[nH]nc(-c4cc5c(-c6cccc(F)c6)nccc5[nH]4)c3n2)c1)C1CCCCC1` [Compound 23, N-(5-(3-(4-(3-Fluorophenyl)-1H-pyrrolo[3,2-c]pyridin-2-yl)-1H-pyrazolo [4,3-b]pyridin-5-yl)pyridin-3-yl)cyclohexanecarboxamide], the figures for the EC50 (in test [1]; in the test with SW480 colon cancer cells; in test [2]) were 463 nM, 505 nM and 1280 nM, respectively.

Take `Cc1ccncc1-c1ccc2[nH]nc(-c3cc4c(-c5ccc(F)cc5)nccc4[nH]3)c2n1` [Compound 33, 3-(4-(4-Fluorophenyl)-1H-pyrrolo[3,2-c]pyridin-2-yl)-5-(4-methylpyridin-3-yl)-1H-pyrazolo[4,3-b]pyridine]: the EC50 in test [1] is 3300 nM; in the test with SW480 colon cancer cells, 4470 nM; in test [2], more than 10000 nM. Moreover, the inhibition at 10 µM in test [2] turned out to be 37.3%.

`O=C(Nc1cncc(-c2ccc3[nH]nc(-c4cc5c(-c6ccc(F)cc6)nccc5[nH]4)c3n2)c1)c1ccccc1` [Compound 39, N-(5-(3-(4-(4-Fluorophenyl)-1H-pyrrolo[3,2-c]pyridin-2-yl)-1H-pyrazolo [4,3-b]pyridin-5-yl)pyridin-3-yl)benzamide]: the results for the concentration giving a half-maximal response (EC50) (in test [1]; in the test on SW480 colon cancer cells; in test [2]) were 302 nM, 177 nM and 692 nM, respectively.

Regarding `Fc1ccc(-c2nccc3[nH]c(-c4n[nH]c5ccc(-c6cncc(CN7CCC(F)(F)C7)c6)nc45)cc23)cc1` [Compound 54, 5-(5-((3,3-Difluoropyrrolidin-1-yl)methyl)pyridin-3-yl)-3-(4-(4-fluorophenyl)-1H-pyrrolo[3,2-c]pyridin-2-yl)-1H-pyrazolo[4,3-b]pyridine], the EC50 in test [1] stood at 521 nM; in the test on SW480 colon cancer cells, 516 nM; in test [2], 599 nM.

In the case of `CC(C)CC(=O)Nc1cncc(-c2ccc3[nH]nc(-c4cc5c(-c6ccccc6F)nccc5[nH]4)c3n2)c1` [Compound 58, N-(5-(3-(4-(2-Fluorophenyl)-1H-pyrrolo[3,2-c]pyridin-2-yl)-1H-pyrazolo [4,3-b]pyridin-5-yl)pyridin-3-yl)-3-methylbutanamide], the half-maximal effective concentration (EC50) worked out at 370 nM in test [1], 370 nM in the test on SW480 colon cancer cells and 649 nM in test [2].

As for `CN(C)Cc1cncc(-c2ccc3[nH]nc(-c4cc5c(-c6ccccc6F)nccc5[nH]4)c3n2)c1` [Compound 69, 1-(5-(3-(4-(2-Fluorophenyl)-1H-pyrrolo[3,2-c]pyridin-2-yl)-1H-pyrazolo [4,3-b]pyridin-5-yl)pyridin-3-yl)-N,N-dimethylmethanamine], the EC50 in test [1] worked out at 626 nM; in the test with SW480 colon cancer cells it was 596 nM; in test [2], 1210 nM.

Consider `O=C(Nc1cncc(-c2ccc3[nH]nc(-c4cc5c(-c6ccccc6F)nccc5[nH]4)c3n2)c1)C1CC1` [Compound 76, N-(5-(3-(4-(2-Fluorophenyl)-1H-pyrrolo[3,2-c]pyridin-2-yl)-1H-pyrazolo [4,3-b]pyridin-5-yl)pyridin-3-yl)cyclopropanecarboxamide], for which the values for the EC50 (in test [1]; in the test on SW480 colon cancer cells; in test [2]) were 3520 nM, 596 nM and 687 nM, respectively.

As for `Fc1ccccc1-c1nccc2[nH]c(-c3n[nH]c4ccc(-c5cncc(CNCc6ccccc6)c5)nc34)cc12` [Compound 80, N-Benzyl-1-(5-(3-(4-(2-fluorophenyl)-1H-pyrrolo[3,2-c]pyridin-2-yl)-1H-pyrazolo[4,3-b]pyridin-5-yl)pyridin-3-yl)methanamine], the EC50 in test [1] amounted to 1670 nM; with SW480 colon cancer cells, 2140 nM; in test [2], 3790 nM.

For the compound `Fc1ccccc1-c1nccc2[nH]c(-c3n[nH]c4ccc(-c5cncnc5)nc34)cc12` [Compound 83, 3-(4-(2-Fluorophenyl)-1H-pyrrolo[3,2-c]pyridin-2-yl)-5-(pyrimidin-5-yl)-1H-pyrazolo[4,3-b]pyridine], the concentration for a half-maximal effect (EC50) (in test [1]; with SW480 colon cancer cells; in test [2]) was more than 10000 nM in each case. Besides, the inhibition at 10 µM in test [1] is 0%; in the test with SW480 colon cancer cells, 27.9%; in test [2], 2.1%.
